This experiment has as its target T1, STAT5a (Homo sapiens, UniProt P42229).
T1 sequence (P42229 1-794): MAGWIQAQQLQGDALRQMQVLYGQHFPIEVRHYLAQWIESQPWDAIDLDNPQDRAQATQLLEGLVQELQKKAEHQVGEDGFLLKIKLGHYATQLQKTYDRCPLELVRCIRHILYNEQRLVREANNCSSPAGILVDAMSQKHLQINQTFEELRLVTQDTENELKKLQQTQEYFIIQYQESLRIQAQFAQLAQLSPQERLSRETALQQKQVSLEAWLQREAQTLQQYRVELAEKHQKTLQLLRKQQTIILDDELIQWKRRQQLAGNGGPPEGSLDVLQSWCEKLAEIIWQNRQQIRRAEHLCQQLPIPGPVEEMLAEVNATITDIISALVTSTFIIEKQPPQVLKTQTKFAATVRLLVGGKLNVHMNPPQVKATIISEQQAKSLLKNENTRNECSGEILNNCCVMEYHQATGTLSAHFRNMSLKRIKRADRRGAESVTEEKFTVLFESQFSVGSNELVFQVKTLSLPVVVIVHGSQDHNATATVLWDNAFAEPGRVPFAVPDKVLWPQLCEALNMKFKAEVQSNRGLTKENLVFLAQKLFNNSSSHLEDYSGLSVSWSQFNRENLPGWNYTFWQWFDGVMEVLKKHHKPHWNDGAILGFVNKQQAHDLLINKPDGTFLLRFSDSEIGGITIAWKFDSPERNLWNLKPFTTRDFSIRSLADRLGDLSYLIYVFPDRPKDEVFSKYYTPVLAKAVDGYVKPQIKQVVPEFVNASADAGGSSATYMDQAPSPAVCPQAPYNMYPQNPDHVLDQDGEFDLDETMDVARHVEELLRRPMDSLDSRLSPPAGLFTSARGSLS
The experiment is described as follows: Competitive fluorescence polarization (FP) assay, STAT5a SH2 domain. It counts as binding. Conditions: for Ki: Ki derived from IC50; for IC50: mean ± SD, n = 3. As for the experimental part:
Fluorescence polarization assays
Competitive fluorescence polarization assays, which measure the abilities of test compounds (dissolved in DMSO) to displace a fluorescent-labeled peptide from the SH2 domain of a STAT protein, were carried out essentially as described. Proteins were used at the following final concentrations: 23 nM or 28 nM for STAT4; between 56 nM and 91 nM for STAT1; 107 nM or 110 nM for STAT3; between 131 nM and 177 nM for STAT5a; between 62 nM and 85 nM for STAT5b; and 101 nM or 106 nM for STAT6. These concentrations represent the approximate […]
dissociation constant for peptide binding of the respective protein batches used in the assays.
The following peptides were used: 5-carboxyfluorescein-GpYLPQNID-OH for STAT4; 5-carboxyfluorescein-GpYDKPHVL for STAT1; 5-carboxyfluorescein-GpYLPQTV-NH2 for STAT3; 5-carboxyfluorescein-GpYLVLDKW for STAT5a/b, and 5-carboxyfluorescein- […]
Gp[…]-OH for STAT6. All peptides were used at a final concentration of 10 nM. The buffer consisted of 10 mM Tris (pH 8.0), 50 mM NaCl, 1 mM EDTA, 1 mM DTT, 0 .1 % Nonidet P-40 substitute, and 2 % DMSO. After incubation of protein and test compound for 1 h at room temperature, the fluorescent -labeled peptide was added. Samples were transferred to 384 - well microtiter plates and fluorescence polarization was read after an additional 60 min of incubation time. Measurements were performed in triplicate. Percent binding was calculated based on a logarithmic curve fit using OriginPro 8G software. IC 50 values were converted to Ki-values via the published equation[3] using the corresponding Excel spread sheet […]
https://websites.umich.edu/~shaomengwanglab/software/calc_ki/index.html .
Error bars represent standard deviations. Ligand efficiencies (LE) were calculated by the formula LE = -1,37 x log Ki / number of non-hydrogen atoms.[4] […]

As for `O=P(O)(O)Oc1ccc(-c2ccccc2)cc1` [Compound 1, para‐biphenyl phosphate], the affinity, expressed as Ki, was 22 ± 2 µM and the IC50 (commonly the concentration that gives 50% inhibition) amounted to 42 ± 4 µM.

`O=P(O)(O)Oc1ccc(-c2ccc3ccccc3c2)cc1` [Compound 6g]: the affinity corresponds to a Ki of 27 ± 2 µM and the concentration for half-maximal inhibition (IC50) is 55 ± 4 µM.

`O=P(O)(O)Oc1ccc(-c2ccccc2)cc1F` [Compound 6h]: the Ki (as a rule, the equilibrium dissociation constant of an inhibitor or competing ligand from its target) is 28 ± 1 µM and the IC50 came out at 57 ± 2 µM.

Turning to `O=P(O)(O)Oc1ccc(-c2ccc3ccccc3c2)cc1F` [Compound 6m], the Ki is 22 ± 1 µM and the IC50 came out at 45 ± 2 µM.

Turning to `O=P(O)(O)C(F)(F)c1ccc(-c2ccc3ccccc3c2)cc1F` [Compound 8a], affinity was put at a Ki of 27 ± 1 µM and the IC50 stood at 54 ± 3 µM.

In turn, `Cc1cc(-c2ccc(C(F)(F)P(=O)(O)O)c(F)c2)cs1` [Compound 8k] gave an inhibitory constant (Ki) of 39 ± 1 µM and an IC50 of 79 ± 2 µM.

For the origin of these results see publication PMC12087874, “Biaryl Phosphates and Phosphonates as Selective Inhibitors of the Transcription Factor STAT4” (Angewandte Chemie (International Ed. in English), 2025).
